According to patent US11859203B2, “Cell culture methods” (UCB BIOPHARMA SRL, priority 2017, dated 2024):

How the values were obtained:
Type in all cases: cell-based, Chinese Hamster
[1] = test system: CHO-DG44 cells from cell line 1; assay: Fed-batch Ambr15 mini bioreactor culture, different replacement levels, cell line 1 (Example 5); details: at optimum, around 70% of replacement
Description: We tested different concentrations of cysteine/cystine derivatives on the improvement on the APG level of a recombinant protein preparation produced in cell culture cultivated in mini bioreactors. CHO-DG44 cells from cell line 1 were inoculated in 12 mL basal media at a seeding density of 0.35×10^6 cells/mL in Ambr15 bioreactors (Sartorius). The cells were cultivated in fed-batch mode during 14 days. The DO was maintained at 40% and the pH was maintained 7.0±0.2 with an automatic CO2 sparging regulation. Viable cell concentration and cell viability were measured daily using a ViCell automated cell counter (Beckman Coulter). Cells were cultured in a fed-batch mode with a daily bolus addition of Feed. The basal media contained 0.04 mmol/L cysteine+0.38 mmol/L cystine. The Feed contained 153.3 mmol/L of cystine. Over the entire 14-day production phase, the total volume of added Feed corresponded to 4.7% (v/v) of the culture start volume.
Different percentages of cysteine present in the Feed was replaced by different cysteine- and cystine analogs. Table 4 provides an overview of different percentages tested and their equivalence in molar ratio relative to cysteine or cystine. E.g. for N-Acetyl-L-cysteine 10% means that 10% molar amount of cysteine equivalent has been replaced by 10% molar amount of N-Acetyl-L-cysteine; for N,N′-Diacetyl-L-cystine, 10% means that 10 molar amount of cystine equivalent has been replaced with 10% molar amount of N,N′-Diacetyl-L-cystine. At the end of the 14 days of culture, the cell culture fluid was harvested by centrifugation. The supernatant was then purified using a protein-A affinity chromatography (GE). The protein-A eluates were used for the charge variants determination using isocapillary focusing (PROTEINSIMPLE iCE3).

[2] = test system: CHO-DG44 cells from cell line 1; assay: Fed-batch 2 L bioreactor culture with cysteine/cystine derivatives, cell line 1 (Example 3); details: 50% replacement, cell line 1, 2 L bioreactor
Description: (§1) The ability of cysteine/cystine derivatives to reduce color and acidic species of a recombinant protein preparation produced in cell culture was evaluated in a bioreactor for two cell lines. This model is more representative of the large-scale production than the shake flask due to the geometry and additional control. CHO-DG44 cells from cell line 1 and 2 were inoculated in 1300 mL of basal media at a seeding density of 0.35×10^6 cells/mL in 2 L stirred bioreactor (Sartorius). The cells were cultivated during 14 days in fed-batch mode. The cell cultures were agitated at 280 rpm and the DO was maintained at 40%. The cell culture was maintained at pH 7.0±0.2 with an automatic CO2 sparging regulation. Cells were cultured in a fed-batch mode with bolus addition of Feed every day of culture. The basal media contained 0.04 mmol/L of cysteine+0.38 mmol/L of cystine. The Feed contained 153.3 mmol/L of cystine. Over the entire 14-day production phase, the total volume of Feed added corresponded to 5.7% (w/w) of the culture start volume for cell line 1 and to 3.1% (w/w) of the culture start volume for cell line 2.
(§2) The cysteine present in the Feed was replaced by different cysteine- and cystine derivatives at different percentages as presented in Table 2. A condition with only 50% of cysteine was added to test whether the improvements observed were due to the cysteine derivative or to the reduction of cysteine only. Osmolality was daily monitored using an osmometer from Advanced instrument. Off line pH, dissolved O2 and dissolved CO2 were daily monitored using a Nova Biomedical Phox (Nova biomedical). Metabolites concentrations were daily determined using a CedexBioHT system (Roche). Viable cell concentration and cell viability were measured daily using a ViCell automated cell counter (Beckman Coulter). The cell culture fluid was collected daily by centrifuging 1 mL of cell culture fluid for determination of antibody titer by HPLC prot A (waters) or using protein-L Octet measurement (Pall). At the end of the 14 days of culture, the cell culture fluid was harvested by centrifugation. The supernatant was then purified using a protein-A or L affinity chromatography (GE). The protein-A or L eluates were used for the molecular weight determination using UPLC size exclusion (Waters) and for the charge variants determination using isocapillary focusing (PROTEINSIMPLE iCE3). Another part of the protein-A eluates (only from cell line 1) was concentrated to 40 mg/mL using Amicon centricon centrifugal filter devices (Millipore). Color intensity of the concentrated antibody composition was measured in the concentrated protein A eluates using a spectrophotometer by transmission (UltrascanPro) and compared to the CIE (commission internationale de l'éclairage) scale. The numerical results were normalized to the concentration of 40 mg/mL.

[3] = test system: CHO-DG44 cells producing a multispecific antibody derivative (cell line 2); assay: Fed-batch shake flask culture with cysteine/cystine derivatives, cell line 2 (Example 2); details: 50% replacement; day 14; cell line 2, shake flask
Description: The ability of cysteine/cystine derivatives to reduce color and acidic species of a recombinant protein preparation in cell culture was evaluated using another antibody-producing cell line, cell line 2. For this experiment a scale-down model in shake flask was used. CHO-DG44 cells producing a multispecific antibody derivative were inoculated in 100 mL of basal media at a seeding density of 0.35×10^6 cells/mL. The shake flask vessels were 250 mL shake flasks (corning) disposed in an agitated incubator (Infors) protected from light. The cells were cultivated for 14 days at 36.8° C. with 80% of humidity. The cell cultures were agitated at 140 rpm at the beginning of the process. The agitation was increased during the process progressively to reach 250 rpm to maintain a DO % at 40% in the shake flask, as is it done in the 2 L bioreactor process. […]
The cysteine present in the Feed was replaced by different cysteine and cystine derivatives with a replacement ratio of 50% equimolar (Table 1). […] Osmolality was daily monitored using an osmometer from Advanced instrument. Off line pH, dissolved O2 and dissolved CO2 were daily monitored using a Nova Biomedical Phox (Nova biomedical). Metabolites concentrations were daily determined using a CedexBioHT system (Roche). Viable cell concentration and cell viability were measured daily using a ViCell automated cell counter (Beckman Coulter). […]

[4] = test system: CHO-DG44 cells from cell line 2; assay: Fed-batch 2 L bioreactor culture with cysteine/cystine derivatives, cell line 2 (Example 3); details: 50% replacement; cell line 2, 2 L bioreactor
Description: as §1, §2

cell line 1 = assay: Reproducibility in 2 L bioreactor, cell line 1, average of data sets 1 and 2 (Example 4); details: 50% replacement
Description: as §1, §2
The reproducibility of the results was evaluated in bioreactor with cell line 1. The experiments of Example 3 were repeated with an additional control and a bioreactor with 50% S-sulfocysteine 50% Cysteine Feed. The data from the two experiments were analyzed to confirm the effect previously observed with cysteine/cystine derivatives.

CC(=O)N[C@@H](CS)C(=O)O [N-acetyl-L-cysteine, N-Acetyl-L-cysteine]
decrease of acidic species [1]: 12.5% | decrease of acidic species level compared to control [2]: 10% | main species level [2]: increase of main species | decrease of the b value level (color intensity) compared to control ([2]; 40 mg/mL): 13% | decrease on acidic variants level compared to control [3]: 14.5% | decrease of acidic species level compared to control [4]: 13% | main species level [4]: increase of main species | specific productivity (cell line 1; compared to 50% cysteine feed): did not impact the productivity | average decrease of acidic species level compared to control (cell line 1; data sets 1 and 2 average): 10% | average decrease of b value level (color intensity) compared to control (cell line 1; data sets 1 and 2 average): 13% | decrease in antibody titer compared to the controls average (cell line 1; data sets 1 and 2 average): 10% | main species level (cell line 1; data sets 1 and 2 average): increase of main species | cell growth (VCC) compared to control (cell line 1; from day 9, 2 L bioreactor, data sets 1 and 2): higher VCCs than the control conditions
